From ChEMBL document CHEMBL1932976, “Synthesis of novel 1,3-diaryl pyrazole derivatives bearing rhodanine-3-fatty acid moieties as potential antibacterial agents” (2012)
In brackets after ≈: the same amount, converted by molar mass.

Tests used:
Type in all cases: functional
Staphylococcus aureus [1] = experiment: Antibacterial activity against Staphylococcus aureus RN4220 after 20 hrs by twofold serial dilution technique; conditions: RN4220, 20 h
Staphylococcus aureus [2] = experiment: Antibacterial activity against Staphylococcus aureus KCTC 503 after 20 hrs by twofold serial dilution technique; conditions: KCTC 503, 20 h
Escherichia coli [3] = experiment: Antibacterial activity against Escherichia coli CCARM 1924 after 20 hrs by twofold serial dilution technique; conditions: CCARM 1924, 20 h
Escherichia coli [4] = experiment: Antibacterial activity against Escherichia coli CCARM 1356 after 20 hrs by twofold serial dilution technique; conditions: CCARM 1356, 20 h
Staphylococcus aureus [5] = experiment: Antibacterial activity against methicillin-resistant Staphylococcus aureus CCARM 3167 after 20 hrs by twofold serial dilution technique; conditions: CCARM 3167, 20 h
Staphylococcus aureus [6] = experiment: Antibacterial activity against methicillin-resistant Staphylococcus aureus CCARM 3506 after 20 hrs by twofold serial dilution technique; conditions: CCARM 3506, 20 h
Staphylococcus aureus [7] = experiment: Antibacterial activity against quinolone-resistant Staphylococcus aureus CCARM 3505 after 20 hrs by twofold serial dilution technique; conditions: CCARM 3505, 20 h
Staphylococcus aureus [8] = experiment: Antibacterial activity against quinolone-resistant Staphylococcus aureus CCARM 3519 after 20 hrs by twofold serial dilution technique; conditions: CCARM 3519, 20 h

SMILES	MIC (Staphylococcus aureus [1])	MIC (Staphylococcus aureus [2])	MIC (Escherichia coli [3])	MIC (Escherichia coli [4])	MIC (Staphylococcus aureus [5])	MIC (Staphylococcus aureus [6])	MIC (Staphylococcus aureus [7])	MIC (Staphylococcus aureus [8])
O=C(O)CN1C(=O)/C(=C/c2cn(-c3ccccc3)nc2-c2ccc(Br)cc2)SC1=S	8 µg/mL (≈ 16 µM)	8 µg/mL (≈ 16 µM)	> 64 µg/mL	> 64 µg/mL	8 µg/mL (≈ 16 µM)	8 µg/mL (≈ 16 µM)	8 µg/mL (≈ 16 µM)	8 µg/mL (≈ 16 µM)
O=C(O)CN1C(=O)/C(=C/c2cn(-c3ccccc3)nc2-c2ccc([N+](=O)[O-])cc2)SC1=S	> 64 µg/mL	> 64 µg/mL	> 64 µg/mL	> 64 µg/mL				
COc1ccc(-c2nn(-c3ccccc3)cc2/C=C2\SC(=S)N(CC(=O)O)C2=O)cc1	> 64 µg/mL	> 64 µg/mL	> 64 µg/mL	> 64 µg/mL				
O=C(O)CN1C(=O)/C(=C/c2cn(-c3ccccc3)nc2-c2cccc(Br)c2)SC1=S	8 µg/mL (≈ 16 µM)	32 µg/mL (≈ 63.9 µM)	> 64 µg/mL	> 64 µg/mL	8 µg/mL (≈ 16 µM)	16 µg/mL (≈ 32 µM)	16 µg/mL (≈ 32 µM)	64 µg/mL (≈ 128 µM)
Cc1onc(-c2ccccc2)c1C(=O)N[C@@H]1C(=O)N2[C@@H]1SC(C)(C)[C@@H]2C(=O)O [OXACILLIN]	1 µg/mL (≈ 2.49 µM)	1 µg/mL (≈ 2.49 µM)	> 64 µg/mL	> 64 µg/mL	> 64 µg/mL	> 64 µg/mL	1 µg/mL (≈ 2.49 µM)	1 µg/mL (≈ 2.49 µM)
O=C(O)CN1C(=O)/C(=C/c2cn(-c3ccccc3)nc2-c2ccccc2Cl)SC1=S	32 µg/mL (≈ 70.2 µM)	32 µg/mL (≈ 70.2 µM)	> 64 µg/mL	> 64 µg/mL	16 µg/mL (≈ 35.1 µM)	32 µg/mL (≈ 70.2 µM)	32 µg/mL (≈ 70.2 µM)	32 µg/mL (≈ 70.2 µM)
O=C(O)CN1C(=O)/C(=C/c2cn(-c3ccccc3)nc2-c2ccc(F)cc2)SC1=S	> 64 µg/mL	> 64 µg/mL	> 64 µg/mL	> 64 µg/mL				
O=C(O)CCN1C(=O)/C(=C/c2cn(-c3ccccc3)nc2-c2ccc(Cl)cc2)SC1=S	8 µg/mL (≈ 17 µM)	16 µg/mL (≈ 34 µM)	> 64 µg/mL	> 64 µg/mL	4 µg/mL (≈ 8.51 µM)	4 µg/mL (≈ 8.51 µM)	4 µg/mL (≈ 8.51 µM)	8 µg/mL (≈ 17 µM)
O=C(O)CCCCCN1C(=O)/C(=C/c2cn(-c3ccccc3)nc2-c2ccc(Cl)cc2)SC1=S	> 64 µg/mL	> 64 µg/mL	> 64 µg/mL	> 64 µg/mL				
COc1cccc(-c2nn(-c3ccccc3)cc2/C=C2\SC(=S)N(CC(=O)O)C2=O)c1	64 µg/mL (≈ 142 µM)	64 µg/mL (≈ 142 µM)	> 64 µg/mL	> 64 µg/mL	32 µg/mL (≈ 70.9 µM)	64 µg/mL (≈ 142 µM)	64 µg/mL (≈ 142 µM)	64 µg/mL (≈ 142 µM)
O=C(O)CCCCN1C(=O)/C(=C/c2cn(-c3ccccc3)nc2-c2ccc(Cl)cc2)SC1=S	> 64 µg/mL	> 64 µg/mL	> 64 µg/mL	> 64 µg/mL				
O=C(O)CCCN1C(=O)/C(=C/c2cn(-c3ccccc3)nc2-c2ccc(Cl)cc2)SC1=S	8 µg/mL (≈ 16.5 µM)	4 µg/mL (≈ 8.26 µM)	> 64 µg/mL	> 64 µg/mL	4 µg/mL (≈ 8.26 µM)	4 µg/mL (≈ 8.26 µM)	4 µg/mL (≈ 8.26 µM)	4 µg/mL (≈ 8.26 µM)
Cc1ccc(-c2nn(-c3ccccc3)cc2/C=C2\SC(=S)N(CC(=O)O)C2=O)c(C)c1	16 µg/mL (≈ 35.6 µM)	16 µg/mL (≈ 35.6 µM)	> 64 µg/mL	> 64 µg/mL	16 µg/mL (≈ 35.6 µM)	16 µg/mL (≈ 35.6 µM)	16 µg/mL (≈ 35.6 µM)	16 µg/mL (≈ 35.6 µM)
O=C(O)CN1C(=O)/C(=C/c2cn(-c3ccccc3)nc2-c2ccccc2F)SC1=S	64 µg/mL (≈ 146 µM)	64 µg/mL (≈ 146 µM)	> 64 µg/mL	> 64 µg/mL	64 µg/mL (≈ 146 µM)	64 µg/mL (≈ 146 µM)	64 µg/mL (≈ 146 µM)	64 µg/mL (≈ 146 µM)
O=C(O)CN1C(=O)/C(=C/c2cn(-c3ccccc3)nc2-c2ccccc2)SC1=S	64 µg/mL (≈ 152 µM)	64 µg/mL (≈ 152 µM)	> 64 µg/mL	> 64 µg/mL	32 µg/mL (≈ 75.9 µM)	32 µg/mL (≈ 75.9 µM)	32 µg/mL (≈ 75.9 µM)	32 µg/mL (≈ 75.9 µM)
COc1ccccc1-c1nn(-c2ccccc2)cc1/C=C1\SC(=S)N(CC(=O)O)C1=O	> 64 µg/mL	> 64 µg/mL	> 64 µg/mL	> 64 µg/mL				
O=C(O)CN1C(=O)/C(=C/c2cn(-c3ccccc3)nc2-c2cccc(Cl)c2)SC1=S	16 µg/mL (≈ 35.1 µM)	> 64 µg/mL	> 64 µg/mL	> 64 µg/mL	16 µg/mL (≈ 35.1 µM)	32 µg/mL (≈ 70.2 µM)	16 µg/mL (≈ 35.1 µM)	64 µg/mL (≈ 140 µM)
O=C(O)CCCCCN1C(=O)/C(=C/c2cn(-c3ccccc3)nc2-c2ccc(Cl)cc2Cl)SC1=S	32 µg/mL (≈ 58.6 µM)	8 µg/mL (≈ 14.6 µM)	> 64 µg/mL	> 64 µg/mL	4 µg/mL (≈ 7.32 µM)	32 µg/mL (≈ 58.6 µM)	32 µg/mL (≈ 58.6 µM)	4 µg/mL (≈ 7.32 µM)
CCn1cc(C(=O)O)c(=O)c2cc(F)c(N3CCNCC3)cc21 [NORFLOXACIN]	2 µg/mL (≈ 6.26 µM)	2 µg/mL (≈ 6.26 µM)	16 µg/mL (≈ 50.1 µM)	16 µg/mL (≈ 50.1 µM)	8 µg/mL (≈ 25.1 µM)	4 µg/mL (≈ 12.5 µM)	> 64 µg/mL	> 64 µg/mL
O=C(O)CN1C(=O)/C(=C/c2cn(-c3ccccc3)nc2-c2ccc3ccccc3c2)SC1=S	> 64 µg/mL	> 64 µg/mL	> 64 µg/mL	> 64 µg/mL				
O=C(O)CCCN1C(=O)/C(=C/c2cn(-c3ccccc3)nc2-c2ccc(Cl)cc2Cl)SC1=S	8 µg/mL (≈ 15.4 µM)	4 µg/mL (≈ 7.72 µM)	> 64 µg/mL	> 64 µg/mL	4 µg/mL (≈ 7.72 µM)	4 µg/mL (≈ 7.72 µM)	4 µg/mL (≈ 7.72 µM)	4 µg/mL (≈ 7.72 µM)
O=C(O)CCN1C(=O)/C(=C/c2cn(-c3ccccc3)nc2-c2ccc(Cl)cc2Cl)SC1=S	8 µg/mL (≈ 15.9 µM)	4 µg/mL (≈ 7.93 µM)	> 64 µg/mL	> 64 µg/mL	4 µg/mL (≈ 7.93 µM)	4 µg/mL (≈ 7.93 µM)	4 µg/mL (≈ 7.93 µM)	4 µg/mL (≈ 7.93 µM)
O=C(O)CN1C(=O)/C(=C/c2cn(-c3ccccc3)nc2-c2ccc(Cl)cc2Cl)SC1=S	8 µg/mL (≈ 16.3 µM)	8 µg/mL (≈ 16.3 µM)	> 64 µg/mL	> 64 µg/mL	4 µg/mL (≈ 8.16 µM)	4 µg/mL (≈ 8.16 µM)	8 µg/mL (≈ 16.3 µM)	8 µg/mL (≈ 16.3 µM)
O=C(O)CCCCN1C(=O)/C(=C/c2cn(-c3ccccc3)nc2-c2ccc(Cl)cc2Cl)SC1=S	4 µg/mL (≈ 7.51 µM)	4 µg/mL (≈ 7.51 µM)	> 64 µg/mL	> 64 µg/mL	2 µg/mL (≈ 3.76 µM)	2 µg/mL (≈ 3.76 µM)	2 µg/mL (≈ 3.76 µM)	2 µg/mL (≈ 3.76 µM)
O=C(O)CN1C(=O)/C(=C/c2cn(-c3ccccc3)nc2-c2ccc(Cl)cc2)SC1=S	8 µg/mL (≈ 17.5 µM)	8 µg/mL (≈ 17.5 µM)	> 64 µg/mL	> 64 µg/mL	8 µg/mL (≈ 17.5 µM)	8 µg/mL (≈ 17.5 µM)	8 µg/mL (≈ 17.5 µM)	16 µg/mL (≈ 35.1 µM)
Cc1ccc(-c2nn(-c3ccccc3)cc2/C=C2\SC(=S)N(CC(=O)O)C2=O)cc1	16 µg/mL (≈ 36.7 µM)	> 64 µg/mL	> 64 µg/mL	> 64 µg/mL	16 µg/mL (≈ 36.7 µM)	16 µg/mL (≈ 36.7 µM)	16 µg/mL (≈ 36.7 µM)	64 µg/mL (≈ 147 µM)
